We go through eight compounds from patent US20110306035A1, “Methods and Compositions for Detection of a Pathogen, Disease, Medical Condition, or Biomarker Thereof” (priority 2008, published 2011).

“And” between values parts separate entries of the source, which are not always exact repeats. Equal values may be shown once. Square brackets hold non-standard residues; d marks the D form. Peptide text beside a SMILES is read from it. * marks the point of attachment. Sta = CC(C)C[C@H](N)[C@@H](O)CC(=O)O; pNA = O=[N+]([O-])c1ccc(N*)cc1; Isovaleryl = CC(C)CC(=O)*; MeOSuc = COC(=O)CCC(=O)* A value given as a limit tells only on which side of the number the result lay.

Experiment [1] concerns the target T1, Recombinant protease from enterovirus strain Echo (Echovirus 30, UniProt Q9WN78).
T1 construct: Phosphoramidon was tested using the Echovirus 3C recombinant
The experiment can be described thus: Enterovirus assay optimization with recombinant Echo protease (plates, tubes, buffer, Na2SO4, substrate concentration, diluent). It counts as biochemical. As to conditions: for enzymatic activity: 0.25 uM substrate. The protocol: • Inhibitor Cocktail: Inhibitors cocktail I10 • Enzyme dilution buffer: −25 mM HEPES pH 7.5, 150 mM NaCl, 1 mM EDTA, 10% Glycerol, 0.5 mg/ml BSA, 1M Sucrose, 0.1% Sodium azid. • 2× reaction buffer, Buffer B: 50 mM HEPES, 10 mM EDTA, 10 mM EGTA, 1.2M Na2SO4, sodium azide 0.1%, pH 8.5 • Artificial CSF: NaCl 125 mM, KCl 2.5 mM, MgCl 1 mM, NaH2PO4 1.25 mM, CaCl2 2 mM, Glucose 2.5 mM, NaHCO3 25 mM, 0.1% Sodium azide, HEPES 25 mM, pH 7.45. • Enzyme: Recombinant protease from enterovirus strain “Echo” [dilution 1:18 • Substrate: Camb-2.3, 1 mM, Camb-2.4, 2 mM. (Different batches for the same Camb2 sequence) • HEPES Buffer: HEPES 25 mM • NB tubes: Sigma Cat #Z666505 • Amber tubes: USA scientific Inc. Cat. 1620-2707 • 96 well Plate: Dark bottom NB plate—Greiner Cat. 655900
• 1. Add artiCSF±HEPES buffer to plate • 2. Prepare 400 ul HEPES buffer±RB+substrate (camb2.3 and 2.4) in both amber and NB tubes. • 3. Add enzyme to wells • 4. Add HEPES buffer±RB+substrate to wells with multichannel pipette.
The reaction buffer is a part of the enterovirus test kit of the invention. The camb-2 substrate is dissolved in the reaction buffer. The reaction buffer contains different salts to allow the tested enzyme to work at the optimal conditions. The current reaction buffer composition is: HEPES pH 7.5, 300 mM NaCl, 10 mM EDTA, 10 mM EGTA, 10% Glycerol, 1.8M Na2SO4, 0.1% Sodium azide. The amount of salt in the reaction buffer is high and allows optimal enzymatic activity. However, under these conditions, substrate solubility is affected. Thus, the reaction buffer was improved to increase substrate solubility without reducing enzymatic activity of the tested 3C protease.
300 mM NaCl and 10% glycerol was removed from the reaction buffer and several reduced concentrations of Na2SO4 (starting at 0.9M) were tested in order to determine the minimal salt requirements of the assay (Tables 31-34). Experiments were repeated at least three times by two different scientists.
CSF sample was incubated with 50 nM Echo protease and 2× reaction buffer with 0.6M Na2SO4. Also included were 3 blanks and 9 positive control repetitions.
The effect of reduction in substrate (camb2) concentration and increase in measurement time was tested. The experiment was performed at a final substrate (camb2.5) concentrations of 1, 0.5, 0.25 and 0.125 μM and data analysis was made at different time intervals: 1.5-5, 5-12 and 5-22 min (FIGS. 27A-C).
Sodium sulfate generally has an ambivalent effect: it increase 3C protease activity and reduces substrate solubility. Once it was decided that the substrate concentration would be reduced to 0.25 uM and results analyzed at between 5-10 min, the Na2SO4 concentration was optimized. […] 0.6-0.4M Na2SO4 was tested under the new assay conditions.
• Data analysis was performed between 5-10 min. • The assay activity was measured in triplicates by three scientists. The results in Table 51 are the average of the three triplicates.
To examine the effect of substrate dilution in DMSO vs. DDW under the new assay conditions, substrate stock (1 mM in DMSO) was diluted 1:8 in DMSO or in DDW to yield the working stock. The working stocks were further diluted 1:250 in 2× RB for a concentration of 0.5 uM (0.25 uM final in the well).
The assay activity was measured in triplicates by three scientists. The results in Table 52 are the average of the three triplicates.

In a further experiment the target is PSA (Homo sapiens, UniProt P07288). As to conditions: in the presence of 1.3M Na2SO4; cited from earlier work.
Chain of PSA (P07288 25-261): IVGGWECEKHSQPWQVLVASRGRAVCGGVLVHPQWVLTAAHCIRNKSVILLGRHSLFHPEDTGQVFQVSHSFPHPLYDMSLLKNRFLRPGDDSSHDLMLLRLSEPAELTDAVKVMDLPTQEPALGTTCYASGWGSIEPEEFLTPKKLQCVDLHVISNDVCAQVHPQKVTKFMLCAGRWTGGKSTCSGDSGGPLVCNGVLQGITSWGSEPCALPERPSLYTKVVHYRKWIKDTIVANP
Experiment [2] concerns the target T2, recombinant HRV 3C protease (Human rhinovirus 14, UniProt P03303).
T2 construct: Reactions were performed at 4 μM PEP1 and 50 nM recombinant HRV 3C protease
The experiment can be described thus: HRV 3C protease activity with inhibitors (Buffer+3C, PEP1). The class given is biochemical. As to conditions: 4 μM PEP1; 50 nM recombinant HRV 3C protease. The protocol:
(§1) All inhibitors were dissolved at 100×, aliquoted, stored and used according to the manufacturers' instructions. No freeze thaw cycles were imposed on the inhibitors. Prior to starting the assay by addition of substrate, 10 μl of the cocktail or individual inhibitor was incubated for 5 min with 90 μl of the sample/buffer+ HRV protease.
(§2) To test the effect of the inhibitors on protease activity (Buffer+3C) and on background noise present in a nasal wash specimen pool, reaction rates were compared with or without the inhibitors in question (Table 12). Reactions were performed at 4 μM PEP1 and 50 nM recombinant HRV 3C protease for 5 min under starting buffer environment. A nasal wash specimen pool of four HRV negative specimens by RT-PCR was used due to insufficient volume from an individual specimen and to reproduce equal conditions throughout the experiments.
(§3) Results with and without inhibitory cocktail and with cocktail+recombinant HRV 3C protease are shown for both the specimen pool (FIG. 21A) and human WBC at ˜1×10^6 cell/ml (FIG. 21B). […] Spiking of recombinant HRV 3C protease to reactions with the inhibitory cocktail induced specific HRV protease activities at normal rates. Reactions were performed with 4 μM PEP1 and 50 nM recombinant HRV 3C protease where indicated (by +3C). The data are representative of two independent repeats.

Experiment [3] deals with non specific proteolytic activity of the nasal wash specimen. The experiment can be described thus: Background noise in nasal wash specimen pool (HRV assay, PEP1). It counts as biochemical. As to conditions: 4 μM PEP1; 5 min. On the procedure: as §1, §2, §3
A further experiment concerns the target T3, a-Chymotrypsin Type IV (Bos taurus, UniProt P00766, DEL14-15/DEL147-148).
T3 construct: purchased
The experiment can be described thus: Competition inhibition of chymotrypsin by two substrates. As to conditions: Sub.-1 50 nM, Enzyme 100 pg/ml. It counts as biochemical. The protocol:
• Dilution and reaction Buffer: HEPES 100 mM pH=7.5. • Substrate 1 (Sub.-1) Camb-2.4 (a batch of Camb2 substrate): FRET substrate based on Alexa 532 fluorophore. • Substrate 2 (Sub.-2): Commercially available colorimetric base (420NM) a-Chymotrypsin substrate. Dissolve in 1:1 HEPES/DMSO to 20 mm. additional 1:10 dilution was done in HEPES buffer. • Enzyme—a-Chymotrypsin: Commercially available a-Chymotrypsin Type IV was diluted in HEPES buffer to a stock of 20 ug/ml. Fluorimeter: DMV, Polar-Star Galaxy. Parameters: • Ex. […]. • Temprature RT. • Total reading Time 10 min. Gain 90
• Solution-1: HEPES buffer. • Solution-2: Substrate-1 stock was diluted 1:10 in 1000 ul HEPES to give a 2× solution of 100 nM. • Solution-3, a-d: Substrate-2 stock was serially diluted 1:10 with HEPES and 10 ul of each dilution was added into 40 ul of HEPES. a-400 uM, b-40 uM, c-4 uM, d-400 nM (10× solutions) • Solution-4: Enzyme stock was diluted 1:20 into 300 ul of HEPES to give a 10× solution.
Using a multi-Channel pipette, the above Solutions were added into a non binding blacked bottom 96 wells plat, using columns 1-6 of rows A-C. 30 ul Solution-1 and 50 ul Solution-2 were added to each well. Into rows A-C, 10 ul of Solution-1 was added to columns 1 and 2, 10 ul Solution-3a was added to column 3, 10 ul Solution-3b was added to column 4, 10 ul Solution-3c was added to column 5 and 10 ul Solution-3d was added to column 6. Into rows A-C. 10 ul of Solution-1 was added to columns 1, 10 ul of Solution-4 was added to columns 2-6. Fluorimertic reading was then started.

T1 sequence (Q9WN78 1550-1732): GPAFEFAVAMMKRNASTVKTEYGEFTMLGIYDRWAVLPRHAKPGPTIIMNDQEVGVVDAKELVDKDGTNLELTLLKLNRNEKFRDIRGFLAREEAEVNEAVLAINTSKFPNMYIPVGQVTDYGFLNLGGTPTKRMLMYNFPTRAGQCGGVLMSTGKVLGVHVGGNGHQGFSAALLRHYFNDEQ
T2 sequence (P03303 1538-1719): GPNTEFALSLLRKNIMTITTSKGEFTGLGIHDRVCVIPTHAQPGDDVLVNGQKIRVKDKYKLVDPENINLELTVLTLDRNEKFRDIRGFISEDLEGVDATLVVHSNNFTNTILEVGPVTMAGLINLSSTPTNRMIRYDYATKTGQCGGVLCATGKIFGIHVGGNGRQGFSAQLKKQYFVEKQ

For `O=S(=O)([O-])[O-].[Na+].[Na+]` [Na2SO4], the “Positive control reaction rate, 0.4M Na2SO4, Averages ± SE” value in experiment [1] (0.4M Na2SO4, average of all experiments, analysis 5-10 min) is recorded as 444 ± 75 RFU/min. Moreover, the enzymatic activity is reported as 444 in experiment [1] (0.4M sodium sulfate, analysis 5-10 min); 700 in experiment [1] (0.5M sodium sulfate, analysis 5-10 min); 825 in experiment [1] (0.6M sodium sulfate, analysis 5-10 min). Further, in experiment [1] (0.5M Na2SO4, average of all experiments, analysis 5-10 min), the “Positive control reaction rate, 0.5M Na2SO4, Averages ± SE” value turned out to be 703 ± 56 RFU/min. For the same compound, in experiment [1] (0.6M Na2SO4, average of all experiments, analysis 5-10 min), the “Positive control reaction rate, 0.6M Na2SO4, Averages ± SE” value worked out at 825 ± 31 RFU/min. Further, the “Positive control reaction rate, 0.6M Na2SO4” value in experiment [1] (0.6M Na2SO4 final, recombinant Echo protease positive control, 0.25 uM camb2.5 substrate, data analysis 5-10 min, single experiments (EXP)) was 679 RFU/min and 918 RFU/min and 921 RFU/min and 739 RFU/min and 770 RFU/min and 862 RFU/min and 890 RFU/min and 824 RFU/min. Moreover, the “increase of PSA photolytic activity” value on PSA was > 103 fold.
Consider `CC(C)C[C@H](NC(=O)[C@H]1O[C@@H]1C(=O)O)C(=O)NCCCCN=C(N)N` [E-64], for which the “inhibition of HRV 3C protease activity” value in experiment [2] is on record as “no inhibition”.
For the compound Heparin, in experiment [2], the “inhibition of HRV 3C protease activity” value is reported as “did not inhibit”.
For `CC(C)[C@@H]1C(=O)N(S(C)(=O)=O)[C@@H]2CCN(C(=O)/C=C/CN3CCCCC3)[C@H]21.Cl` [GW311616A], in experiment [2], the “inhibition of HRV 3C protease activity” value was “did not inhibit”.
Ac-DEVD-CHO: the “effect on the non specific proteolytic activity of the nasal wash specimen” value in experiment [3] is listed as “no effect”.
On to `CC(C)CC(=O)N[C@H](C(=O)N[C@H](C(=O)N[C@@H](CC(C)C)[C@@H](O)CC(=O)N[C@@H](C)C(=O)N[C@@H](CC(C)C)[C@@H](O)CC(=O)O)C(C)C)C(C)C` [Pepstatin A] (Isovaleryl-VV[Sta]A[Sta]-OH), for which, in experiment [2], the “inhibition of HRV 3C protease activity” value is listed as “did not inhibit”. For the same compound, in experiment [3], the “effect on the non specific proteolytic activity of the nasal wash specimen” value is “no effect”.
Taken in the same sequence, the figures for `CC(C)C[C@H](NC(=O)[C@@H](O)[C@H](N)Cc1ccccc1)C(=O)O` [Bestatin] were “did not inhibit” and “no effect”.
For the compound “M-Suc-Ala-Ala-Pro-Phe-p-Nitr (MeOSuc-AAPF-pNA; SMILES COC(=O)CCC(=O)N[C@@H](C)C(=O)N[C@@H](C)C(=O)N1CCC[C@H]1C(=O)N[C@@H](Cc1ccccc1)C(=O)Nc1ccc([N+](=O)[O-])cc1) [Sub.-2, Commercially available colorimetric a-Chymotrypsin substrate]”, the Inhibition % with a-Chymotrypsin Type IV (Sub.-2 40 nM) was found to be 10%; in the experiment with a-Chymotrypsin Type IV (Sub.-2 400 nM), 20%; with a-Chymotrypsin Type IV (Sub.-2 4 uM), 40%; with a-Chymotrypsin Type IV (Sub.-2 40 uM) it was 55%. For the same compound, the “Rate FU/min (Average)” value with a-Chymotrypsin Type IV (Sub.-2 40 nM) is listed as 18000 FU/min; with a-Chymotrypsin Type IV (Sub.-2 400 nM), 16000 FU/min; with a-Chymotrypsin Type IV (Sub.-2 4 uM) it was 12000 FU/min; in the experiment with a-Chymotrypsin Type IV (Sub.-2 40 uM) it was 9000 FU/min.
